# Laboratory results published in US20230053540A1, “TREATMENT OF LIVER INJURY” (Massachusetts Institute of Technology, priority 2019, published 2023).
# System: hepatocytes
# Assay: Seq-Well scRNA-Seq of hepatocytes after APAP overdose (signature scores, DEG vs untreated)
# Type: in vivo, mouse
# Settings: cluster A6 (APAP 6 hr)
smiles,measurement,value
"CC(=O)Nc1ccc(O)cc1 [APAP, acetaminophen]",Cxadr avg_logFC,0.6184
same,Cxadr pct.1,0.606
same,Cyp4a14 avg_logFC,0.5996
same,Cyp4a14 pct.1,0.776
same,D10Wsu102e avg_logFC,0.5134
same,D10Wsu102e pct.1,0.37
same,Ddx3x avg_logFC,0.4893
same,Ddx3x pct.1,0.692
same,Ddx5 avg_logFC,0.4732
same,Ddx5 pct.1,0.685
same,Ddx21 avg_logFC,0.6398
same,Dgkd avg_logFC,0.3462
same,Dgkd pct.1,0.282
same,Dkc1 avg_logFC,0.3232
same,Dkc1 pct.1,0.315
same,Dot1l avg_logFC,0.3695
same,Dot1l pct.1,0.282
same,Dusp5 avg_logFC,0.2889
same,Dusp5 pct.1,0.196
same,Dusp6 avg_logFC,0.4768
same,Dusp6 pct.1,0.482
same,Dusp16 avg_logFC,0.4153
same,Dusp16 pct.1,0.372
same,Eaf1 avg_logFC,0.5066
same,Eaf1 pct.1,0.427
same,Efhd2 avg_logFC,0.5545
same,Efhd2 pct.1,0.468
same,Eif1a avg_logFC,0.6585
same,Eif1a pct.1,0.599
same,Eif4g2 avg_logFC,0.3399
same,Eif4g2 pct.1,0.757
same,Epas1 avg_logFC,0.6264
same,Epas1 pct.1,0.604
same,Etf1 pct.1,0.606
same,Etnppl avg_logFC,0.4038
same,Etnppl pct.1,0.706
same,Ets2 avg_logFC,0.6277
same,Ets2 pct.1,0.415
same,Fam107b avg_logFC,0.4224
same,Fam107b pct.1,0.449
same,Fam134b avg_logFC,0.6202
same,Fam134b pct.1,0.678
same,Fcgr3 avg_logFC,0.294
same,Fcgr3 pct.1,0.107
same,Fcna avg_logFC,0.3469
same,Fcna pct.1,0.124
same,Fxyd5 avg_logFC,0.2697
same,Fxyd5 pct.1,0.138
same,Gclc avg_logFC,1.893
same,Gclc pct.1,0.962
same,Gcnt2 avg_logFC,0.4614
same,Gcnt2 pct.1,0.372
same,Gm10800 avg_logFC,0.5383
same,Gm10800 pct.1,0.115
same,Gm15564 avg_logFC,0.6079
same,Gm15564 pct.1,0.983
same,Gm23388 avg_logFC,0.4216
same,Gm23388 pct.1,0.222
same,Gm24187 avg_logFC,0.3969
same,Gm24187 pct.1,0.2
same,Gm24245 avg_logFC,0.5737
same,Gm24245 pct.1,0.422
same,Gm26924 avg_logFC,0.3029
same,Gm26924 pct.1,1
same,Gnl3 avg_logFC,0.477
same,Gnl3 pct.1,0.501
same,Gpt2 avg_logFC,0.3682
same,Gpt2 pct.1,0.764
same,Gsta1 avg_logFC,0.4204
same,Gsta1 pct.1,0.32
same,Gtpbp4 avg_logFC,0.4579
same,Gtpbp4 pct.1,0.477
same,H2-Ab1 avg_logFC,0.4491
same,H2-Ab1 pct.1,0.158
same,H2-Eb1 avg_logFC,0.3214
same,H2-Eb1 pct.1,0.105
same,H3f3b avg_logFC,0.5088
same,H3f3b pct.1,0.613
same,Hba-a1 avg_logFC,0.716
same,Hba-a1 pct.1,0.165
same,Hba-a2 avg_logFC,0.5328
same,Hba-a2 pct.1,0.131
same,Heatr1 avg_logFC,0.3433
same,Heatr1 pct.1,0.291
same,Hic2 avg_logFC,0.2673
same,Hic2 pct.1,0.15
same,Hif1a avg_logFC,0.4719
same,Hif1a pct.1,0.427
same,Hilpda avg_logFC,0.7698
same,Hilpda pct.1,0.403
same,Hmox1 avg_logFC,1.29
same,Hmox1 pct.1,0.558
same,Hnf4a avg_logFC,0.559
same,Hnf4a pct.1,0.835
same,Hnrnpdl avg_logFC,0.4137
same,Hnrnpdl pct.1,0.406
same,Hsd17b13 avg_logFC,0.5284
same,Hsd17b13 pct.1,0.864
same,Ier5 avg_logFC,0.2797
same,Ier5 pct.1,0.134
same,Iigp1 avg_logFC,0.6118
